The text below walks through data of ChEMBL document CHEMBL4190365, “Synthesis and antiproliferative properties of new hydrophilic esters of triterpenic acids” (Eur J Med Chem, 2017).

What all share (format): functional, cell-based
For assay [1], the system named is CCRF-CEM. Put plainly: Cytotoxicity in human CEM cells assessed as reduction in cell viability incubated for 72 hrs by calcein AM cytotoxicity assay. Conditions: Homo sapiens, CCRF-CEM, 72 h.
Assay [2] concerns MCF7. Briefly: Cytotoxicity in human MCF7 cells assessed as reduction in cell viability incubated for 72 hrs by calcein AM cytotoxicity assay. Conditions: Homo sapiens, MCF7, 72 h.
Assay [3] deals with HeLa. Briefly: Cytotoxicity in human HeLa cells assessed as reduction in cell viability incubated for 72 hrs by calcein AM cytotoxicity assay. Conditions: Homo sapiens, HeLa, 72 h.
The subject of assay [4] is G-361. Put plainly: Cytotoxicity in human G361 cells assessed as reduction in cell viability incubated for 72 hrs by calcein AM cytotoxicity assay. The settings on record: Homo sapiens, G-361, 72 h.
The subject of assay [5] is BJ. Put plainly: Cytotoxicity in human BJ cells assessed as reduction in cell viability incubated for 72 hrs by calcein AM cytotoxicity assay. The settings on record: Homo sapiens, BJ, 72 h.

Regarding `CC(C)[C@@H]1CC[C@]2(C(=O)OCCN3CCCC3)CC[C@]3(C)[C@H](CC[C@@H]4[C@@]5(C)CC[C@H](O)C(C)(C)[C@@H]5CC[C@]43C)[C@@H]12`, the IC50 (usually the point on the concentration scale where inhibition reaches its midpoint) was 2.8 µM in assay [1]; 10.3 µM in assay [2]; 7.7 µM in assay [3]; 8.2 µM in assay [4]; 17 µM in assay [5].
Consider `CC(C)[C@@H]1CC[C@]2(C(=O)OCCBr)CC[C@]3(C)[C@H](CC[C@@H]4[C@@]5(C)CC[C@H](O)C(C)(C)[C@@H]5CC[C@]43C)[C@@H]12`, for which the IC50 in assay [1] is 35.4 µM; in assay [2], 45.9 µM; in assay [3], 21.3 µM; in assay [4], 43.1 µM; in assay [5], 36.7 µM.
For `C=C(C)[C@@H]1CC[C@]2(C(=O)OCC(=O)OCc3ccccc3)CC[C@]3(C)[C@H](CC[C@@H]4[C@@]5(C)CC[C@H](O)C(C)(C)[C@@H]5CC[C@]43C)[C@@H]12`, in that order: 21.9 µM, greater than 50 µM, greater than 50 µM, 22.2 µM and greater than 50 µM.
As for `C=C(C)[C@@H]1CC[C@]2(C(=O)O[C@@H]3O[C@H](CO)[C@H](O)[C@H](O)[C@H]3O)CC[C@]3(C)[C@H](CC[C@@H]4[C@@]5(C)CC[C@H](O)C(C)(C)[C@@H]5CC[C@]43C)[C@@H]12`, the IC50 in assay [1], in assay [2], in assay [3], in assay [4] and in assay [5] was greater than 50 µM each time.
Turning to `CC(=O)OC[C@@]1(C(=O)OCCN2CCCCC2)CC[C@]2(C)[C@H](CC[C@@H]3[C@@]4(C)CC[C@H](OC(C)=O)C(C)(C)[C@@H]4CC[C@]32C)[C@@H]1O`, the IC50 is greater than 50 µM in assay [1]; 27.2 µM in assay [2]; greater than 50 µM in assay [3]; greater than 50 µM in assay [4]; greater than 50 µM in assay [5].
With `CC(=O)OC[C@@]1(C(=O)OCCBr)CC[C@]2(C)[C@H](CC[C@@H]3[C@@]4(C)CC[C@H](OC(C)=O)C(C)(C)[C@@H]4CC[C@]32C)C1=O`, the IC50 in assay [1], in assay [2], in assay [3], in assay [4] and in assay [5] was greater than 50 µM in each case.
In the case of `C=C(C)[C@@H]1CC[C@]2(C(=O)O[C@@H]3O[C@H](COC(C)=O)[C@@H](OC(C)=O)[C@H](OC(C)=O)[C@H]3OC(C)=O)CC[C@]3(C)[C@H](CC[C@@H]4[C@@]5(C)CC[C@H](O)C(C)(C)[C@@H]5CC[C@]43C)[C@@H]12`, the IC50 in assay [1], in assay [2], in assay [3], in assay [4] and in assay [5] was greater than 50 µM each time.
For the molecule `C=C(C)[C@@H]1CC[C@]2(C(=O)O[C@@H]3O[C@H](CO)[C@@H](O)[C@H](O)[C@H]3O)CC[C@]3(C)[C@H](CC[C@@H]4[C@@]5(C)CC[C@H](O)C(C)(C)[C@@H]5CC[C@]43C)[C@@H]12`, the IC50 in assay [1], in assay [2], in assay [3], in assay [4] and in assay [5] was greater than 50 µM each time.
With `COCCOC(=O)[C@]12CC[C@@H](C(C)C)[C@@H]1[C@H]1CC[C@@H]3[C@@]4(C)CC[C@H](O)C(C)(C)[C@@H]4CC[C@@]3(C)[C@]1(C)CC2`, the concentration for half-maximal inhibition (IC50) in assay [1] is 38.4 µM; in assay [2], 44.4 µM; in assay [3], 21.5 µM; in assay [4], 38.6 µM; in assay [5], 26.5 µM.
For `CC(C)[C@@H]1CC[C@]2(C(=O)O[C@@H]3O[C@H](CO)[C@H](O)[C@H](O)[C@H]3O)CC[C@]3(C)[C@H](CC[C@@H]4[C@@]5(C)CC[C@H](O)C(C)(C)[C@@H]5CC[C@]43C)[C@@H]12`, in that order: greater than 50 µM, greater than 50 µM, greater than 50 µM, greater than 50 µM and greater than 50 µM.
In the case of `C=C(C)[C@@H]1CC[C@]2(C(=O)OCCOC)CC[C@]3(C)[C@H](CC[C@@H]4[C@@]5(C)CC[C@H](O)C(C)(C)[C@@H]5CC[C@]43C)[C@@H]12`, the IC50 in assay [1] was 32.8 µM; in assay [2] it was 35.2 µM; in assay [3], 32.4 µM; in assay [4] it was 30.3 µM; in assay [5] it was 43.7 µM.
For `CC(=O)OC[C@H]1O[C@@H](OC(=O)[C@@]23CC[C@]4(C)[C@H](CC[C@@H]5[C@@]6(C)CC[C@H](OC(C)=O)C(C)(C)[C@@H]6CC[C@]54C)C2=C(C(C)C)C(=O)C3)[C@H](OC(C)=O)[C@@H](OC(C)=O)[C@H]1OC(C)=O`, the IC50 is 4.5 µM in assay [1]; 3.7 µM in assay [2]; 44.3 µM in assay [3]; 3.1 µM in assay [4]; 31.8 µM in assay [5].
The matching figures for `CC(=O)OC[C@H]1O[C@@H](OC(=O)[C@]23CC[C@@H](C(C)C)[C@@H]2[C@H]2CC[C@@H]4[C@@]5(C)CC[C@H](O)C(C)(C)[C@@H]5CC[C@@]4(C)[C@]2(C)CC3)[C@H](OC(C)=O)[C@@H](OC(C)=O)[C@H]1OC(C)=O`: 8.6 µM, 2.8 µM, 5.1 µM, 4.7 µM and greater than 50 µM.
The matching figures for `COCCOCCOC(=O)[C@]12CC[C@@H](C(C)C)[C@@H]1[C@H]1CC[C@@H]3[C@@]4(C)CC[C@H](O)C(C)(C)[C@@H]4CC[C@@]3(C)[C@]1(C)CC2`: 32.3 µM, 31.3 µM, 26.4 µM, 24 µM and 30.5 µM.
`CC(=O)OC[C@@]1(C(=O)OCC(=O)O)CC[C@]2(C)[C@H](CC[C@@H]3[C@@]4(C)CC[C@H](OC(C)=O)C(C)(C)[C@@H]4CC[C@]32C)C1=O`: the IC50 in assay [1] was 32.4 µM; in assay [2], greater than 50 µM; in assay [3], greater than 50 µM; in assay [4] it was greater than 50 µM; in assay [5] it was 7 µM.
Regarding `CC(=O)OC[C@H]1O[C@@H](OC(=O)[C@]2(COC(C)=O)CC[C@]3(C)[C@H](CC[C@@H]4[C@@]5(C)CC[C@H](OC(C)=O)C(C)(C)[C@@H]5CC[C@]43C)[C@@H]2O)[C@H](OC(C)=O)[C@@H](OC(C)=O)[C@H]1OC(C)=O`, the IC50 in assay [1], in assay [2], in assay [3], in assay [4] and in assay [5] was greater than 50 µM in each case.
For the molecule `C=C(C=O)[C@@H]1CC[C@]2(C(=O)OCCN3CCOCC3)CC[C@]3(C)[C@H](CC[C@@H]4[C@@]5(C)CC[C@H](O)C(C)(C)[C@@H]5CC[C@]43C)[C@@H]12`, the concentration for half-maximal inhibition (IC50) in assay [1] is 3.8 µM; in assay [2], 2.2 µM; in assay [3], 11 µM; in assay [4], 5.3 µM; in assay [5], 19.2 µM.
The matching figures for `C=C(C)[C@@H]1CC[C@]2(C(=O)OCC(=O)O)CC[C@]3(C)[C@H](CC[C@@H]4[C@@]5(C)CC[C@H](O)C(C)(C)[C@@H]5CC[C@]43C)[C@@H]12`: greater than 50 µM, greater than 50 µM, greater than 50 µM, greater than 50 µM and greater than 50 µM.
Turning to `C=C(C)[C@@H]1CC[C@]2(C(=O)OCCOCCOC)CC[C@]3(C)[C@H](CC[C@@H]4[C@@]5(C)CC[C@H](O)C(C)(C)[C@@H]5CC[C@]43C)[C@@H]12`, the IC50 in assay [1] is 30.7 µM; in assay [2] it was 36.4 µM; in assay [3], 14.5 µM; in assay [4], 26.9 µM; in assay [5], greater than 50 µM.
The matching figures for `CC(=O)OC[C@@]1(C(=O)OCC(=O)OCc2ccccc2)CC[C@]2(C)[C@H](CC[C@@H]3[C@@]4(C)CC[C@H](OC(C)=O)C(C)(C)[C@@H]4CC[C@]32C)C1=O`: greater than 50 µM, greater than 50 µM, greater than 50 µM, greater than 50 µM and greater than 50 µM.
For `CC(=O)OC[C@@]1(C(=O)OCCN2CCCC2)CC[C@]2(C)[C@H](CC[C@@H]3[C@@]4(C)CC[C@H](OC(C)=O)C(C)(C)[C@@H]4CC[C@]32C)[C@@H]1O`, the IC50 in assay [1] is 8.3 µM; in assay [2], 10 µM; in assay [3], 10.6 µM; in assay [4] it was 7.4 µM; in assay [5], 14.1 µM.
As to `CC(=O)OC[C@@]1(C(=O)OCCN2CCCC2)CC[C@]2(C)[C@H](CC[C@@H]3[C@@]4(C)CC[C@H](OC(C)=O)C(C)(C)[C@@H]4CC[C@]32C)C1=O`, the IC50 was 25.8 µM in assay [1]; greater than 50 µM in assay [2]; greater than 50 µM in assay [3]; 20.3 µM in assay [4]; greater than 50 µM in assay [5].
`CC(=O)O[C@H]1CC[C@]2(C)[C@H]3CC[C@@H]4C5=C(C(C)C)C(=O)C[C@]5(C(=O)OCCN5CCCC5)CC[C@@]4(C)[C@]3(C)CC[C@H]2C1(C)C`: the IC50 was 13.3 µM in assay [1]; 7.3 µM in assay [2]; 7.7 µM in assay [3]; 6.5 µM in assay [4]; 19.1 µM in assay [5].
The matching figures for `CC(=O)OC[C@H]1O[C@@H](OC(=O)[C@@]23CC[C@]4(C)[C@H](CC[C@@H]5[C@@]6(C)CC[C@H](OC(C)=O)C(C)(C)[C@@H]6CC[C@]54C)C2=C(C(C)C)C(=O)C3)[C@H](OC(C)=O)[C@@H](OC(C)=O)[C@@H]1OC(C)=O`: 9.1 µM, 3.8 µM, 9.8 µM, 4.3 µM and greater than 50 µM.
